Results reported in patent US9453026B2, “ACC inhibitors and uses thereof” (Gilead Apollo, Inc., priority 2011, dated 2016).

Experiments:
[1] = molecular target: ACC2 (Homo sapiens, UniProt O00763); experiment: In vitro ACC2 inhibition assay (ADP-Glo); format: biochemical; conditions: read-out: ACC2
Method in brief: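 Enzyme (human ACC1 or ACC2) and compound, serially diluted 1:3 over 11 points from a 600 uM DMSO stock, were preincubated 15 min before substrate addition.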

[2] = molecular target: ACC1 (Homo sapiens, UniProt Q13085); experiment: In vitro ACC1 inhibition assay (ADP-Glo); format: biochemical; conditions: read-out: ACC1
Method: An exemplary procedure for the in vitro ACC inhibition assay, which can be used to determine the inhibitory action of compounds of the invention toward either ACC1 or ACC2, follows. The ADP-Glo™ Kinase Assay kit from Promega was used. The ADP-Glo™ Kinase Assay is a luminescent ADP detection assay to measure enzymatic activity by quantifying the amount of ADP produced during an enzyme reaction. The assay is performed in two steps; first, after the enzyme reaction, an equal volume of ADP-Glo™ Reagent is added to terminate the reaction and deplete the remaining ATP. Second, the Kinase Detection Reagent is added to simultaneously convert ADP to ATP and allow the newly synthesized ATP to be measured using a luciferase/luciferin reaction. Luminescence can be correlated to ADP concentrations by using an ATP-to-ADP conversion curve. The detailed procedure is as follows. 50 μL of the compound being tested (600 uM in DMSO) was added to a 384-well dilution plate. The compound was diluted 1:3 in succession in DMSO for each row for 11 wells. 0.5 μL ACC2 working solution was added to 384-well white Optiplate assay plate. 0.5 μL diluted compound solution in each column from step 2 to assay plate, each row containing 2 replicates. […] The plates were incubated at room temperature for 15 minutes. 5 μL substrate working solution was added to each well to initiate reaction. […] Plates were incubated at room temperature for 60 minutes. 10 μL ADP glo reagent was added. Plates were incubated at room temperature for 40 minutes. 20 μL kinase detection reagent was added.
Data for each concentration, as well as the positive and negative controls were averaged, and the standard deviation calculated. Percent inhibition was calculated by the formula: 100× (average negative control−compound)/(average negative control−average positive control). The IC50 for each compound was calculated by fitting the data with a non-linear regression equation: Y=Bottom+(Top-Bottom)/(1+10^((Log IC50−X)*HillSlope)), where X is the log of compound concentration and Y is percent inhibition.
The compound numbers correspond to the compound numbers in Table 1.

ACC2, sequence (O00763 whole entry, species assumed): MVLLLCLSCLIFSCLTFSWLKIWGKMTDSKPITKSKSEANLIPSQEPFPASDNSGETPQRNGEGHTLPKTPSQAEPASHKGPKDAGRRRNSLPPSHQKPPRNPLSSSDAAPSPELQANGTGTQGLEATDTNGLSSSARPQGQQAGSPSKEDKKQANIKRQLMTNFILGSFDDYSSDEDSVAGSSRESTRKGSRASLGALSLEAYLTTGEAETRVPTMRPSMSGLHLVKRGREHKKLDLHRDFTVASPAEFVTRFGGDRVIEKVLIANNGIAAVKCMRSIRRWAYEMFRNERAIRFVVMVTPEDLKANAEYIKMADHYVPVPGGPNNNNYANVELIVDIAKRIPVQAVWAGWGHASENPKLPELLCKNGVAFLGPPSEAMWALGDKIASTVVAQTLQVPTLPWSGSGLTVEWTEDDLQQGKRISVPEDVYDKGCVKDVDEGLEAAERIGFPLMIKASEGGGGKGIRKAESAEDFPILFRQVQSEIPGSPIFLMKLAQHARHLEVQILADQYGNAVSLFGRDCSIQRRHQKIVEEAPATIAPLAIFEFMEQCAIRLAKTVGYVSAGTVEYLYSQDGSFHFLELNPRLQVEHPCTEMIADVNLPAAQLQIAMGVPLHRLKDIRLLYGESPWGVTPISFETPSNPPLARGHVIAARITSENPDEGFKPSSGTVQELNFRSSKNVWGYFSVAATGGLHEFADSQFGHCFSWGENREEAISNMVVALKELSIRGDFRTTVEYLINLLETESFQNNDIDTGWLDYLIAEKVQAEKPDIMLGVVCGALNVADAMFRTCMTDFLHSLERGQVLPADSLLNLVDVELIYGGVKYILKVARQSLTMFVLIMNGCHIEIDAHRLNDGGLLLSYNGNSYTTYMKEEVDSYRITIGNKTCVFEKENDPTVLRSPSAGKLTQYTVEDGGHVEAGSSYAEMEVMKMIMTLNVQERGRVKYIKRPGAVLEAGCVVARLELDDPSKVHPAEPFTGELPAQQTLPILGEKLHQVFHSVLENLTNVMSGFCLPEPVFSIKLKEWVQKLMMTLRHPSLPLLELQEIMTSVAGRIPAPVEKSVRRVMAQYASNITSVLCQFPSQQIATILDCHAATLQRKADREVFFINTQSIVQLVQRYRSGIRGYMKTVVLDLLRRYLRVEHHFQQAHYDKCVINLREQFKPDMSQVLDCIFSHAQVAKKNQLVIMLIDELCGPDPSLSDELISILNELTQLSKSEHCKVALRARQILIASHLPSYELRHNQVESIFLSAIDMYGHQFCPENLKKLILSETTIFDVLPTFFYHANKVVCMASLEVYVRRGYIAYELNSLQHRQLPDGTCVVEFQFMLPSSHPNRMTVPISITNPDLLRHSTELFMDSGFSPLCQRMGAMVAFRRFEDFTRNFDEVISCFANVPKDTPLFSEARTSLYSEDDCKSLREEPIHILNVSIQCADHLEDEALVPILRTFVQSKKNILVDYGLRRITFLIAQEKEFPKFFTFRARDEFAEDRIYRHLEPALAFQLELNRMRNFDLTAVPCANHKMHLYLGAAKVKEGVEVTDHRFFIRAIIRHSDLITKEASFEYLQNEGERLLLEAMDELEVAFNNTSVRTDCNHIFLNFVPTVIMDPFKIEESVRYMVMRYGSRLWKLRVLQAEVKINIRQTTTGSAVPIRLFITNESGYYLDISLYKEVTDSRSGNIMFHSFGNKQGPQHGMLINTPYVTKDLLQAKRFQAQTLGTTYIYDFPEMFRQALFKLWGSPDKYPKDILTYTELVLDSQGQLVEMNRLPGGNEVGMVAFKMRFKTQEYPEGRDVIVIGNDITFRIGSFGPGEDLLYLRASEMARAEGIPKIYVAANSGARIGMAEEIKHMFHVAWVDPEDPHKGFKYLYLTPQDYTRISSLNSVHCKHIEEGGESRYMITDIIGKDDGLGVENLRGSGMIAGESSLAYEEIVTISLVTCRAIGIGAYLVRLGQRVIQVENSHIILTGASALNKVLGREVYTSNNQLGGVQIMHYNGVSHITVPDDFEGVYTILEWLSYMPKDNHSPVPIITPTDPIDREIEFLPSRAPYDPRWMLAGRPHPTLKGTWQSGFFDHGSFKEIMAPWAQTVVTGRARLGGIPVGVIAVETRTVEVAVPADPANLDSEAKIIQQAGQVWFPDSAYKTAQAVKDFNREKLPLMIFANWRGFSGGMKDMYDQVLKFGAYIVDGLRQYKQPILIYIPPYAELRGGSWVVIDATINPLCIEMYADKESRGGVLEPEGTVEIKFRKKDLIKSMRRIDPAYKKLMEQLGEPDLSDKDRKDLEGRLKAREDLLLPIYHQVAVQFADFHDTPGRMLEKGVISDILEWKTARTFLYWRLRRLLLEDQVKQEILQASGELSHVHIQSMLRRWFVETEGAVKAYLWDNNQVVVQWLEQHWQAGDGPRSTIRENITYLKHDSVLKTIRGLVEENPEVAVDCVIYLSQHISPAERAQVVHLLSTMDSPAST

Row | IC50 [1] [µM] | IC50 [2] [µM] | Structure (SMILES)
1 | 5 to 20 | 5 to 20 | CCOC(=O)c1sc2c(c1C)c(=O)n(CC(=O)O)c(=O)n2CCc1c(F)cccc1F [I-33, 2-[1-[2-(2,6-difluorophenyl)ethyl]-6-(ethoxycarbonyl)-5-methyl-2,4-dioxo-1H,2H,3H,4H-thieno[2,3-d]pyrimidin-3-yl]acetic acid]
2 | < 0.1 | < 0.1 | COc1ccccc1[C@H](Cn1c(=O)n(C(C)(C)C(=O)O)c(=O)c2c(C)c(-c3ncco3)sc21)OCC1CCOCC1 [I-259, 2-[1-[(2R)-2-(2-methoxyphenyl)-2-(oxan-4-ylmethoxy)ethyl]-5-methyl-6-(1,3-oxazol-2-yl)-2,4-dioxo-1H,2H,3H,4H-thieno[2,3-d]pyrimidin-3-yl]-2-methylpropanoic acid]
3 | < 0.1 | < 0.1 | COc1ccccc1[C@H](Cn1c(=O)n(Cc2nnc[nH]2)c(=O)c2c(C)c(-c3ncco3)sc21)OC1CCOCC1 [I-289, 1-[(2R)-2-(2-methoxyphenyl)-2-(oxan-4-yloxy)ethyl]-5-methyl-6-(1,3-oxazol-2-yl)-3-(4H-1,2,4-triazol-3-ylmethyl)-1H,2H,3H,4H-thieno[2,3-d]pyrimidine-2,4-dione]
4 | < 0.1 | < 0.1 | Cc1c(-c2ncco2)sc2c1c(=O)n(C(C)(C)C(N)=O)c(=O)n2C[C@H](OC1CCOCC1)c1ccccc1OC(C)C [I-292, 2-methyl-2-[5-methyl-1-[(2R)-2-(oxan-4-yloxy)-2-[2-(propan-2-yloxy)phenyl]ethyl]-6-(1,3-oxazol-2-yl)-2,4-dioxo-1H,2H,3H,4H-thieno[2,3-d]pyrimidin-3-yl]propanamide]
5 | < 5 | < 5 | CCOC(=O)c1sc2c(c1C)c(=O)n(CC(N)=O)c(=O)n2CCc1ccccc1 [I-14]
6 | < 0.1 | < 0.1 | CCc1ccccc1[C@H](Cn1c(=O)n(C(C)(C)C(=O)O)c(=O)c2c(C)c(-c3ncco3)sc21)O[C@H]1CC[C@H](O)CC1 [I-244, 2-(1-((R)-2-(2-ethylphenyl)-2-(((1r,4R)-4-hydroxycyclohexyl)oxy)ethyl)-5-methyl-6-(oxazol-2-yl)-2,4-dioxo-1,2-dihydrothieno[2,3-d]pyrimidin-3(4H)-yl)-2-methylpropanoic acid]
7 | 5 to 20 | < 5 | CCOC(=O)c1sc2c(c1C)c(=O)n(CCCO)c(=O)n2CCc1ccccc1 [I-19, ethyl 3-(3-hydroxypropyl)-5-methyl-2,4-dioxo-1-(2-phenylethyl)-1H,2H,3H,4H-thieno[2,3-d]pyrimidine-6-carboxylate]
8 | < 0.1 | < 0.1 | Cc1c(-c2ncco2)sc2c1c(=O)n(C(C)(C)C(N)=O)c(=O)n2C[C@H](OC(C)C)c1ccccc1OC(F)F [I-268, 2-[1-[(2R)-2-[2-(difluoromethoxy)phenyl]-2-(propan-2-yloxy)ethyl]-5-methyl-6-(1,3-oxazol-2-yl)-2,4-dioxo-1H,2H,3H,4H-thieno[2,3-d]pyrimidin-3-yl]-2-methylpropanamide]
9 | < 1 | < 0.1 | Cc1c(-c2ncco2)sc2c1c(=O)n(C(C)(C)C(=O)O)c(=O)n2C[C@H](OC(C)C)c1ccccc1 [I-119, 2-methyl-2-[5-methyl-6-(1,3-oxazol-2-yl)-2,4-doxo-1-[(2R)-2-phenyl-2-(propan-2-yloxy)ethyl]-1H,2H,3H,4H-thieno[2,3-d]pyrimidin-3-yl]propanoic acid]
10 | < 0.1 | < 0.1 | COc1ccccc1[C@H](Cn1c(=O)n(C(C)(C)C(=O)N2CC(O)C2)c(=O)c2c(C)c(-c3ncco3)sc21)OC(C)C [I-241, 3-[1-(3-hydroxyazetidin-1-yl)-2-methyl-1-oxopropan-2-yl]-1-[(2R)-2-(2-methoxyphenyl)-2-(propan-2-yloxy)ethyl]-5-methyl-6-(1,3-oxazol-2-yl)-1H,2H,3H,4H-thieno[2,3-d]pyrimidine-2,4-dione]
11 | < 5 | < 5 | CCOC(=O)c1sc2c(c1C)c(=O)n(CC(=O)O)c(=O)n2CCc1ccccc1Cl [I-31, 2-[1-[2-(2-chlorophenyl)ethyl]-6-(ethoxycarbonyl)-5-methyl-2,4-dioxo-1H,2H,3H,4H-thieno[2,3-d]pyrimidin-3-yl]acetic acid]
12 | < 1 | < 0.1 | CCOC(=O)c1sc2c(c1C)c(=O)n(CC(N)=O)c(=O)n2C[C@H](OC(C)C)c1ccccc1 [I-112, ethyl 3-(carbamoylmethyl)-5-methyl-2,4-dioxo-1-[(2R)-2-phenyl-2-(propan-2-yloxy)ethyl]-1H,2H,3H,4H-thieno[2,3-d]pyrimidine-6-carboxylate]
13 | < 5 | < 5 | CCOC(=O)c1sc2c(c1C)c(=O)n(CC(=O)O)c(=O)n2CC(O)c1ccccc1 (stereo not shown) [I-60, 2-[6-(ethoxycarbonyl)-1-(2-hydroxy-2-phenylethyl)-5-methyl-2,4-dioxo-1H,2H,3H,4H-thieno[2,3-d]pyrimidin-3-yl]acetic acid]
14 | < 0.1 | < 0.1 | COc1ccccc1[C@H](Cn1c(=O)n(CC(C)(C)O)c(=O)c2c(C)c(-c3ncco3)sc21)OC1CCOCC1 [I-287, 3-(2-hydroxy-2-methylpropyl)-1-[(2R)-2-(2-methoxyphenyl)-2-(oxan-4-yloxy)ethyl]-5-methyl-6-(1,3-oxazol-2-yl)-1H,2H,3H,4H-thieno[2,3-d]pyrimidine-2,4-dione]
15 | < 0.1 | < 0.1 | COc1ccccc1[C@H](Cn1c(=O)n(C(C)(C)C(=O)N2CCC2)c(=O)c2c(C)c(-c3ncco3)sc21)OC(C)C [I-237, 3-[1-(azetidin-1-yl)-2-methyl-1-oxopropan-2-yl]-1-[(2R)-2-(2-methoxyphenyl)-2-(propan-2-yloxy)ethyl]-5-methyl-6-(1,3-oxazol-2-yl)-1H,2H,3H,4H-thieno[2,3-d]pyrimidine-2,4-dione]
16 | < 0.1 | < 0.1 | CCO[C@@H](Cn1c(=O)n(C(C)(C)C(=O)O)c(=O)c2c(C)c(-c3ncco3)sc21)c1ccccc1OC [I-243, 2-[1-[(2R)-2-ethoxy-2-(2-methoxyphenyl)ethyl]-5-methyl-6-(1,3-oxazol-2-yl)-2,4-dioxo-1H,2H,3H,4H-thieno[2,3-d]pyrimidin-3-yl]-2-methylpropanoic acid]
17 | < 5 | < 5 | CCOC(=O)c1sc2c(c1C)c(=O)n(CCC(N)=O)c(=O)n2CCc1ccccc1 [I-55, ethyl 3-(2-carbamoylethyl)-5-methyl-2,4-dioxo-1-(2-phenylethyl)-1H,2H,3H,4H-thieno[2,3-d]pyrimidine-6-carboxylate]
18 | < 5 | 5 to 20 | CCOC(=O)c1sc2c(c1C)c(=O)n(CCO)c(=O)n2CCc1ccccc1Cl [I-20, ethyl 1-[2-(2-chlorophenyl)ethyl]-3-(2-hydroxyethyl)-5-methyl-2,4-dioxo-1H,2H,3H,4H-thieno[2,3-d]pyrimidine-6-carboxylate]
19 | < 1 | < 1 | CCOC(=O)c1sc2c(c1C)c(=O)n(CC(=O)O)c(=O)n2CC(OC(C)C)c1ccccc1 (stereo not shown) [I-89, 2-[6-(ethoxycarbonyl)-5-methyl-2,4-dioxo-1-[2-phenyl-2-(propan-2-yloxy)ethyl]-1H,2H,3H,4H-thieno[2,3-d]pyrimidin-3-yl]acetic acid]
20 | < 1 | < 1 | CCc1ccccc1CCn1c(=O)n(C(C)(C)C(N)=O)c(=O)c2c(C)c(-c3ncco3)sc21 [I-134, 2-[1-[2-(2-ethylphenyl)ethyl]-5-methyl-6-(1,3-oxazol-2-yl)-2,4-dioxo-1H,2H,3H,4H-thieno[2,3-d]pyrimidin-3-yl]-2-methylpropanamide]
21 | – | < 1 | Cc1c(-c2ncco2)sc2c1c(=O)n(C(C)(C)C(N)=O)c(=O)n2C[C@H](OC1CCOCC1)c1ccccc1Cl [I-252, 2-[1-[(2R)-2-(2-chlorophenyl)-2-(oxan-4-yloxy)ethyl]-5-methyl-6-(1,3-oxazol-2-yl)-2,4-dioxo-1H,2H,3H,4H-thieno[2,3-d]pyrimidin-3-yl]-2-methylpropanamide]
22 | – | < 5 | COc1ccccc1[C@H](Cn1c(=O)n(C(C)(C)C(=O)O)c(=O)c2c(C)c(-c3ncco3)sc21)OCC1COC1 [I-269, (R)-2-(1-(2-(2-methoxyphenyl)-2-(oxetan-3-ylmethoxy)ethyl)-5-methyl-6-(oxazol-2-yl)-2,4-dioxo-1,2-dihydrothieno[2,3-d]pyrimidin-3(4H)-yl)-2-methylpropanoic acid]
23 | – | < 0.1 | COc1ccccc1[C@H](Cn1c(=O)n(C(C)(C)C(=O)O)c(=O)c2c(C)c(-c3ncco3)sc21)OC1CCC(=O)CC1 [I-276, (R)-2-(1-(2-(2-methoxyphenyl)-2-((4-oxocyclohexyl)oxy)ethyl)-5-methyl-6-(oxazol-2-yl)-2,4-dioxo-1,2-dihydrotheno[2,3-d]pyrimidin-3(4H)-yl)-2-methylpropanoic acid]
